Assay results as given in PubChem BioAssay (NCI).
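A five-concentration, 48-hour dose response in 96-well plates underlies each endpoint, interpolated linearly between surrounding concentrations. TGI: concentration producing complete growth inhibition.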

Columns and labels:
Experiment in all cases: DTP human tumour cell line panel, 48 h
OVCAR-8 ovarian = test system: OVCAR-8 ovarian
OVCAR-4 ovarian = test system: OVCAR-4 ovarian
MALME-3M melanoma = test system: MALME-3M melanoma
UACC-257 melanoma = test system: UACC-257 melanoma
SK-MEL-5 melanoma = test system: SK-MEL-5 melanoma
NCI/ADR-RES ovarian = test system: NCI/ADR-RES ovarian
A498 renal = test system: A498 renal
A549 NSCLC = test system: A549 NSCLC
SNB-19 CNS = test system: SNB-19 CNS
DU-145 prostate = test system: DU-145 prostate
ACHN renal = test system: ACHN renal
HCT-116 colon = test system: HCT-116 colon
M14 melanoma = test system: M14 melanoma
MCF7 breast = test system: MCF7 breast
HCT-15 colon = test system: HCT-15 colon
K-562 leukemia = test system: K-562 leukemia
SF-268 CNS = test system: SF-268 CNS
BT-549 breast = test system: BT-549 breast
HOP-92 NSCLC = test system: HOP-92 NSCLC
RXF 393 renal = test system: RXF 393 renal
IGROV1 ovarian = test system: IGROV1 ovarian
MDA-MB-435 = test system: MDA-MB-435
RPMI-8226 leukemia = test system: RPMI-8226 leukemia
SW-620 colon = test system: SW-620 colon
UO-31 renal = test system: UO-31 renal
NCI-H460 lung = test system: NCI-H460 lung
SF-539 CNS = test system: SF-539 CNS
SN12C renal = test system: SN12C renal
TK-10 renal = test system: TK-10 renal
HL-60(TB) leukemia = test system: HL-60(TB) leukemia
SK-MEL-2 melanoma = test system: SK-MEL-2 melanoma
OVCAR-5 ovarian = test system: OVCAR-5 ovarian
NCI-H522 lung = test system: NCI-H522 lung
T-47D breast = test system: T-47D breast
COLO 205 colon = test system: COLO 205 colon
HS 578T breast = test system: HS 578T breast
SR leukemia = test system: SR leukemia
MOLT-4 leukemia = test system: MOLT-4 leukemia
CCRF-CEM leukemia = test system: CCRF-CEM leukemia
SNB-75 CNS = test system: SNB-75 CNS
SF-295 CNS = test system: SF-295 CNS
HOP-62 NSCLC = test system: HOP-62 NSCLC
MDA-N = test system: MDA-N
HT29 colon = test system: HT29 colon
KM12 colon = test system: KM12 colon
CAKI-1 renal = test system: CAKI-1 renal
786-0 renal = test system: 786-0 renal
EKVX NSCLC = test system: EKVX NSCLC
UACC-62 melanoma = test system: UACC-62 melanoma
SK-OV-3 ovarian = test system: SK-OV-3 ovarian
SK-MEL-28 melanoma = test system: SK-MEL-28 melanoma
NCI-H23 lung = test system: NCI-H23 lung
OVCAR-3 ovarian = test system: OVCAR-3 ovarian
PC-3 prostate = test system: PC-3 prostate

COc1cc(S(=O)(=O)Nc2ccc(-c3csc(N4C(=O)C(Cl)C4c4ccccc4)n3)cc2)ccc1Cl (centres undefined)
TGI (OVCAR-8 ovarian): 39.9 µM | TGI (OVCAR-4 ovarian): 87.3 µM | TGI (MALME-3M melanoma): 49 µM | TGI (UACC-257 melanoma): > 100 µM | TGI (SK-MEL-5 melanoma): 88.1 µM | TGI (NCI/ADR-RES ovarian): > 100 µM | TGI (A498 renal): 68.8 µM | TGI (A549 NSCLC): > 100 µM | TGI (SNB-19 CNS): > 100 µM | TGI (DU-145 prostate): 38.7 µM | TGI (ACHN renal): > 100 µM | TGI (HCT-116 colon): > 100 µM | TGI (M14 melanoma): 59.2 µM | TGI (MCF7 breast): > 100 µM | TGI (HCT-15 colon): > 100 µM | TGI (K-562 leukemia): > 100 µM | TGI (SF-268 CNS): > 100 µM | TGI (BT-549 breast): 83.2 µM | TGI (HOP-92 NSCLC): 33.7 µM | TGI (RXF 393 renal): 23.1 µM | TGI (IGROV1 ovarian): 22.4 µM | TGI (MDA-MB-435): > 100 µM | TGI (RPMI-8226 leukemia): > 100 µM | TGI (SW-620 colon): > 100 µM | TGI (UO-31 renal): 63.1 µM | TGI (NCI-H460 lung): > 100 µM | TGI (SF-539 CNS): > 100 µM | TGI (SN12C renal): 94 µM | TGI (TK-10 renal): > 100 µM | TGI (HL-60(TB) leukemia): > 100 µM | TGI (SK-MEL-2 melanoma): > 100 µM | TGI (OVCAR-5 ovarian): > 100 µM | TGI (NCI-H522 lung): 33.9 µM | TGI (T-47D breast): 77.1 µM | TGI (COLO 205 colon): > 100 µM | TGI (HS 578T breast): > 100 µM | TGI (SR leukemia): > 100 µM | TGI (MOLT-4 leukemia): > 100 µM | TGI (CCRF-CEM leukemia): > 100 µM | TGI (SNB-75 CNS): 49.1 µM | TGI (SF-295 CNS): > 100 µM | TGI (HOP-62 NSCLC): > 100 µM | TGI (MDA-N): > 100 µM | TGI (HT29 colon): > 100 µM | TGI (KM12 colon): > 100 µM | TGI (CAKI-1 renal): > 100 µM | TGI (786-0 renal): 49 µM | TGI (EKVX NSCLC): 94.4 µM | TGI (UACC-62 melanoma): 51.2 µM | TGI (SK-OV-3 ovarian): > 100 µM | TGI (SK-MEL-28 melanoma): > 100 µM | TGI (NCI-H23 lung): 89.3 µM | TGI (OVCAR-3 ovarian): > 100 µM | TGI (PC-3 prostate): > 100 µM
